This is an account of results in patent US11180504B2 (ORCHID PHARMA LTD., priority 2016, dated 2021).

The subject of test [1] is methicillin-sensitive Staphylococcus aureus. Nature of the test: MIC by broth micro-dilution (CLSI), methicillin-sensitive S. aureus. It counts as cell-based. As to conditions: MSSA S. aureus ATCC29213. (In general: Broth dilution looks for growth in wells or tubes with falling amounts of substance.)
The subject of test [2] is carbapenem sensitive Escherichia coli. The test is described as follows: MIC by broth micro-dilution (CLSI), carbapenem sensitive E. coli. It counts as cell-based.
Test [3] deals with carbapenemase producing K. pneumoniae. Nature of the test: MIC by broth micro-dilution (CLSI), carbapenemase producing K. pneumoniae. It counts as cell-based, Klebsiella pneumoniae.
The test system of test [4] is carbapenem sensitive Pseudomonas aeruginosa. Nature of the test: MIC by broth micro-dilution (CLSI), carbapenem sensitive P. aeruginosa. It counts as cell-based.
[5] abbreviates: Staphylococcus aureus, ATCC 29213 / MSSA, read-out: MIC.
The mark [6] stands for this setting: Escherichia coli, ATCC25922, ESBL −ve E. coli ATCC25922, read-out: MIC.
[7] abbreviates: Klebsiella pneumoniae, ATCCBAA1705, KPC-2 K. pneumoniae ATCC BAA-1705, read-out: MIC.
[8] abbreviates: Pseudomonas aeruginosa, ATCC27853, Meropenem susceptible P. aeruginosa ATCC27853, read-out: MIC.
Setting [9] is: KPC-2 K. pneumoniae ATCC BAA-1705.
Setting [10] is: Meropenem susceptible P. aeruginosa ATCC27853.

≈ marks a conversion by molar mass, not a printed value. Like-named read-outs stand apart in the source and are kept apart here. A value given as a limit tells only on which side of the number the result lay.

For orientation: MIC means the lowest concentration that inhibits growth of the organism. Turning to `C[C@@H](NC(=O)[C@@H](N)Cn1ncnn1)[C@H]1C(=O)N2C(C(=O)O)=C(S[C@@H]3CN[C@H](C(=O)N(C)C)C3)[C@H](C)[C@H]12` [Example 323, (4R,5S,6R)-6-((R) - 1-((S)-2-amino-3-(2H-tetrazol-2-yl)propanamido)ethyl)-3-((3S,5S)-5-(dimethylcarbamoyl)pyrrolidin-3-ylthio)-4-methyl-7-oxo-1-azabicyclo[3.2.0]hept-2-ene-2-carboxylic acid], the MIC is 16 µg/mL (≈ 30.7 µM) in test [1] (setting [5]), 2 µg/mL (≈ 3.83 µM) in test [2] (setting [6]), 8 µg/mL (≈ 15.3 µM) in test [3] (setting [7]) and > 128 µg/mL in test [4] (setting [8]).
Taken in the same sequence, the figures for `C[C@@H](NC(=O)Cn1cnnn1)[C@H]1C(=O)N2C(C(=O)O)=C(S[C@@H]3CN[C@H](C(=O)N4CCC(CNCCN)CC4)C3)[C@H](C)[C@H]12` [Example 443, (4R,5S,6R)-6-((R)-1-(2-(1H-tetrazol-1-yl)acetamido)ethyl)-3-((3S,5S)-5-(4-((2-aminoethylamino)methyl)piperidine-1-carbonyl)pyrrolidin-3-ylthio)-4-methyl-7-oxo-1-azabicyclo[3.2.0]hept-2-ene-2-carboxylic acid] were 4 µg/mL (≈ 6.61 µM), 0.5 µg/mL (≈ 0.827 µM), 2 µg/mL (≈ 3.31 µM) and 1 µg/mL (≈ 1.65 µM).
Taken in the same sequence, the figures for `C[C@@H](NC(=O)Cn1cnnn1)[C@H]1C(=O)N2C(C(=O)O)=C(S[C@@H]3CN[C@H](C(=O)N4CCC(N5CC(CN)C5)CC4)C3)[C@H](C)[C@H]12` [Example 343, (4R,5S,6R)-6-((R) - 1-(2-(1H-tetrazol-1-yl)acetamido)ethyl)-3-((3S,5S)-5-(4-(3-(aminomethyl)azetidin-1-yl)piperidine-1-carbonyl)pyrrolidin-3-ylthio)-4-methyl-7-oxo-1-azabicycio[3.2.0]hept-2-ene-2-carboxylic acid] were 16 µg/mL (≈ 25.9 µM), 2 µg/mL (≈ 3.24 µM), 8 µg/mL (≈ 13 µM) and 8 µg/mL (≈ 13 µM).
Taken in the same sequence, the figures for `C[C@@H](NC(=O)Cn1cnnn1)[C@H]1C(=O)N2C(C(=O)O)=C(S[C@@H]3CN[C@H](C(=O)NC[C@@H]4CCNC4)C3)[C@H](C)[C@H]12` [Example 513, (4R,5S,6R)-6-((R)-1-(2-(1H-tetrazol-1-yl)acetamido)ethyl)-4-methyl-7-oxo-3-((3S,5S)-5-((R)-pyrrolidin-3-ylmethylcarbamoyl)pyrrolidin-3-ylthio)-1-azabicyclo[3.2.0]hept-2-ene-2-carboxylic acid] were 4 µg/mL (≈ 7.3 µM), 0.25 µg/mL (≈ 0.457 µM), 1 µg/mL (≈ 1.83 µM) and 16 µg/mL (≈ 29.2 µM).
In the case of `C[C@@H](NC(=O)Cn1cnnn1)[C@H]1C(=O)N2C(C(=O)O)=C(SCCNC(=N)N)[C@H](C)[C@H]12` [Example 579, (4R,5S,6R)-6-((R)-1-(2-(1H-tetrazol-1-yl)acetamido)ethyl)-3-(2-guanidinoethylthio)-4-methyl-7-oxo-1-azabicyclo[3.2.0]hept-2-ene-carboxylic acid], the minimum inhibitory concentration (MIC) turned out to be 4 µg/mL (≈ 9.14 µM) in test [1] (setting [5]), 0.25 µg/mL (≈ 0.571 µM) in test [2] (setting [6]), 1 µg/mL (≈ 2.29 µM) in test [3] (setting [7]) and 16 µg/mL (≈ 36.6 µM) in test [4] (setting [8]).
Taken in the same sequence, the figures for `C[C@H]([C@H]1C(=O)N2C(C(=O)O)=C(S[C@@H]3CN[C@H](C(=O)N(C)C)C3)[C@H](C)[C@H]12)n1cnnn1` [Example 319, (4R,5S,6S)-6-((R)-1-(1H-tetrazol-1-yl)ethyl)-3-((3S,5S)-5-(dimethylcarbamoyl)pyrrolidin-3-ylthio)-4-methyl-7-oxo-1-azabicyclo[3.2.0]hept-2-ene-2-carboxylic acid] were 2 µg/mL (≈ 4.59 µM), 0.25 µg/mL (≈ 0.574 µM), 1 µg/mL (≈ 2.3 µM) and 32 µg/mL (≈ 73.5 µM).
Regarding `C[C@@H](NC(=O)Cn1cnnn1)[C@H]1C(=O)N2C(C(=O)O)=C(S[C@@H]3CN[C@H](C(=O)N4CCC5CNCC54)C3)[C@H](C)[C@H]12` (single isomer, unassigned) [Example 467], the MIC in test [1] was 8 µg/mL (≈ 14.3 µM); in test [2] (ESBL −ve E. coli ATCC25922), 1 µg/mL (≈ 1.79 µM); in test [3] (setting [9]), 2 µg/mL (≈ 3.57 µM); in test [4] (setting [10]), 8 µg/mL (≈ 14.3 µM).
In the case of `C[C@@H](NC(=O)Cn1cnnn1)[C@H]1C(=O)N2C(C(=O)O)=C(S[C@@H]3CN[C@H](C(=O)N4CC(N)C(CO)C4)C3)[C@H](C)[C@H]12` (single isomer, unassigned) [Example 586], the minimal inhibitory concentration (MIC) stood at 4 µg/mL (≈ 7.1 µM) in test [1] (setting [5]), 0.25 µg/mL (≈ 0.444 µM) in test [2] (setting [6]), 1 µg/mL (≈ 1.77 µM) in test [3] (setting [7]) and 2 µg/mL (≈ 3.55 µM) in test [4] (setting [8]).
Take `C[C@@H](NC(=O)Cn1cnnn1)[C@H]1C(=O)N2C(C(=O)O)=C(S[C@@H]3CN[C@H](C(=O)N4C[C@@H](N)C[C@H]4CNS(N)(=O)=O)C3)[C@H](C)[C@H]12` [Example 454, (4R,5S,6R)-6-((R)-1-(2-(1H-tetrazol-1-yl)acetamido)ethyl)-3-((3S,5S)-5-((2S,4S)-4-amino-2-((sulfamoylamino)-methyl)pyrrolidine-1-carbonyl)pyrrolidin-3-ylthio)-4-methyl-7-oxo-1-azabicyclo[3.2.0]hept-2-ene-2-carboxylic acid]: the MIC worked out at 8 µg/mL (≈ 12.5 µM) in test [1] (setting [5]), 0.5 µg/mL (≈ 0.779 µM) in test [2] (setting [6]), 4 µg/mL (≈ 6.23 µM) in test [3] (setting [7]) and 4 µg/mL (≈ 6.23 µM) in test [4] (setting [8]).
Regarding `C[C@@H](NC(=O)Cn1cnnn1)[C@H]1C(=O)N2C(C(=O)[O-])=C(SC3Cn4cnc[n+]4C3)[C@H](C)[C@H]12` (stereo partly drawn) [Example 306, (4R,5S,6R)-6-((R) - 1-(2-(1H-tetrazol-1-yl)acetamido)ethyl)-3-(6,7-dihydro-5H-pyrazolo[1,2-a][1,2,4]triazol-4-ium-6-ylthio)-4-methyl-7-oxo-1-azabicyclo[3.2.0]hept-2-ene-2-carboxylate], the MIC is 2 µg/mL (≈ 4.35 µM) in test [1] (setting [5]), 0.25 µg/mL (≈ 0.544 µM) in test [2] (setting [6]), 1 µg/mL (≈ 2.18 µM) in test [3] (setting [7]) and 4 µg/mL (≈ 8.71 µM) in test [4] (setting [8]).
Taken in the same sequence, the figures for `C[C@@H](NC(=O)Cn1cnnn1)[C@H]1C(=O)N2C(C(=O)O)=C(S[C@@H]3CN[C@H](C(=O)N4CCC(n5nccn5)CC4)C3)[C@H](C)[C@H]12` [Example 448, (4R,5S,6R)-6-((R)-1-(2-(1H-tetrazol-1-yl)acetamido)ethyl)-3-((3S,5S)-5-(4-(2H-1,2,3-triazol-2-yl)piperidine-1-carbooyl)pyrrolidin-3-ylthio)-4-methyl-7-oxo-1-azabicyclo[3.2.0]hept-2-ene-2-carboxylic acid] were 4 µg/mL (≈ 6.67 µM), 0.5 µg/mL (≈ 0.834 µM), 8 µg/mL (≈ 13.3 µM) and > 128 µg/mL.
Regarding `C[C@@H](NC(=O)Cn1cnnn1)[C@H]1C(=O)N2C(C(=O)O)=C(S[C@@H]3CN[C@H](C(=O)N4CCC(C(=O)NCC(O)CN)CC4)C3)[C@H](C)[C@H]12` (single isomer, unassigned) [Example 573], the MIC came out at 4 µg/mL (≈ 6.17 µM) in test [1], 0.125 µg/mL (≈ 0.193 µM) in test [2] (ESBL −ve E. coli ATCC25922), 2 µg/mL (≈ 3.08 µM) in test [3] (setting [9]) and 1 µg/mL (≈ 1.54 µM) in test [4] (setting [10]).
Turning to `CNCC(=O)N[C@H](C)[C@H]1C(=O)N2C(C(=O)O)=C(S[C@@H]3CN[C@H](C(=O)N4CC[C@H](N)C[C@@H]4C)C3)[C@H](C)[C@H]12` [Example 264], the MIC in test [1] (setting [5]) is 16 µg/mL (≈ 30.6 µM); in test [2] (setting [6]) it was 2 µg/mL (≈ 3.83 µM); in test [3] (setting [7]) it was 4 µg/mL (≈ 7.65 µM); in test [4] (setting [8]) it was 8 µg/mL (≈ 15.3 µM).
Taken in the same sequence, the figures for `C[C@@H](NC(=O)Cn1cnnn1)[C@H]1C(=O)N2C(C(=O)O)=C(S[C@@H]3CN[C@H](C(=O)N4CC[C@@H](NC(=O)CCN)C4)C3)[C@H](C)[C@H]12` [Example 492, (4R,5S,6R)-6-((R)-1-(2-(1H-tetrazol-1-yl)acetamido)ethyl)-3-((3S,5S)-5-((R)-3-(3-aminopropanamido)pyrrolidine-1-carbonyl)pyrrolidin-3-ylthio)-4-methyl-7-oxo-1-azabicyclo[3.2.0]hept-2-ene-2-carboxylic acid] were 4 µg/mL (≈ 6.61 µM), 0.5 µg/mL (≈ 0.827 µM), 2 µg/mL (≈ 3.31 µM) and 2 µg/mL (≈ 3.31 µM).
On to `C[C@@H](NC(=O)Cn1cnnn1)[C@H]1C(=O)N2C(C(=O)O)=C(S[C@@H]3CN[C@H](C(=O)N4CCC(C)(N)CC4)C3)[C@H](C)[C@H]12` [Example 332, (4R,5S,6R)-6-((R) - 1-(2-(1H-tetrazol-1-yl)acetamido)ethyl)-3-((3S,5S)-5-(4-amino-4-methylpiperidine-1-carbonyl)pyrrolidin-3-ylthio)-4-methyl-7-oxo-1-azabicyclo[3.2.0]hept-2-ene-2-carboxylic acid], for which the MIC was found to be 8 µg/mL (≈ 14.2 µM) in test [1] (setting [5]), 1 µg/mL (≈ 1.78 µM) in test [2] (setting [6]), 4 µg/mL (≈ 7.12 µM) in test [3] (setting [7]) and 8 µg/mL (≈ 14.2 µM) in test [4] (setting [8]).
Regarding `C[C@@H](NC(=O)Cn1cnnn1)[C@H]1C(=O)N2C(C(=O)O)=C(S[C@@H]3CN[C@H](C(=O)N4CCn5c(cnc5N)C4)C3)[C@H](C)[C@H]12` [Example 481, (4R,5S,6R)-6-((R)-1-(2-(1H-tetrazol-1-yl)acetamido)ethyl)-3-((3S,5S)-5-(3-amino-5,6,7,8-tetrahydroimidazo[1,5-a]pyrazine-7-carbonyl)pyrrolidin-3-ylthio)-4-methyl-7-oxo-1-azabicyclo[3.2.0]hept-2-ene-2-carboxylic acid], the MIC was 2 µg/mL (≈ 3.42 µM) in test [1] (setting [5]), 0.125 µg/mL (≈ 0.213 µM) in test [2] (setting [6]), 2 µg/mL (≈ 3.42 µM) in test [3] (setting [7]) and 2 µg/mL (≈ 3.42 µM) in test [4] (setting [8]).
